Test results taken from PubChem BioAssay AID1963850 (Molecular Pharmacology Branch, DTP, NCI, 2024).

Tested on: 192522-019-R-J2-PDC complex tumor spheroid viability
Experiment: Anticancer human tumor 192522-019-R-J2-PDC patient-derived colon adenocarcinoma cell line growth inhibition [POLQ]
Settings: for IC50: curve of first compound; for viability, T/C: stronger effect = lower value
Outline: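 Three-cell-type spheroids modelling solid tumor plus stroma served as the readout system; POL inhibitors were tested individually and in combination, concentration ranges set by clinical Cmax where known.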

[1] = second compound 0.0316 µM, first compound 0.0316 µM
[2] = second compound 0.0316 µM, first compound 0.1 µM
[3] = second compound 0.0316 µM, first compound 0.316 µM
[4] = second compound 0.0316 µM, first compound 1 µM
[5] = second compound 0.0316 µM, first compound 3.16 µM
[6] = second compound 0.0316 µM, first compound 10 µM
[7] = second compound 0.1 µM, first compound 0.0316 µM
[8] = second compound 0.1 µM, first compound 0.1 µM
[9] = second compound 0.1 µM, first compound 0.316 µM
[10] = second compound 0.1 µM, first compound 1 µM
[11] = second compound 0.1 µM, first compound 3.16 µM
[12] = second compound 0.1 µM, first compound 10 µM
[13] = second compound 0.316 µM, first compound 0.0316 µM
[14] = second compound 0.316 µM, first compound 0.1 µM
[15] = second compound 0.316 µM, first compound 0.316 µM
[16] = second compound 0.316 µM, first compound 1 µM
[17] = second compound 0.316 µM, first compound 3.16 µM
[18] = second compound 0.316 µM, first compound 10 µM
[19] = second compound 1 µM, first compound 0.0316 µM
[20] = second compound 1 µM, first compound 0.1 µM
[21] = second compound 1 µM, first compound 0.316 µM
[22] = second compound 1 µM, first compound 1 µM
[23] = second compound 1 µM, first compound 3.16 µM
[24] = second compound 1 µM, first compound 10 µM
[25] = second compound 3.16 µM, first compound 0.0316 µM
[26] = second compound 3.16 µM, first compound 0.1 µM
[27] = second compound 3.16 µM, first compound 0.316 µM
[28] = second compound 3.16 µM, first compound 1 µM
[29] = second compound 3.16 µM, first compound 3.16 µM
[30] = second compound 3.16 µM, first compound 10 µM
[31] = second compound 10 µM, first compound 0.0316 µM
[32] = second compound 10 µM, first compound 0.1 µM
[33] = second compound 10 µM, first compound 0.316 µM
[34] = second compound 10 µM, first compound 1 µM
[35] = second compound 10 µM, first compound 3.16 µM
[36] = second compound 10 µM, first compound 10 µM
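Also: spheroids exposed to drugs for seven days before reading.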
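For viability, T/C in this document: 100% = DMSO vehicle control viability in luminescence.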

## CNCc1ccc(-c2[nH]c3cc(F)cc4c3c2CCNC4=O)cc1 + COC1C(OC(N)=O)C(O)C(Oc2ccc3c(O)c(NC(=O)c4ccc(O)c(CC=C(C)C)c4)c(=O)oc3c2C)OC1(C)C
Second compound 0.0316 µM
  IC50: > 10 µM
Second compound 0.1 µM
  IC50: > 10 µM
Second compound 0.316 µM
  IC50: > 10 µM
Second compound 1 µM
  IC50: > 10 µM
Second compound 3.16 µM
  IC50: > 10 µM
Second compound 10 µM
  IC50: > 10 µM
[1]
  viability, T/C: 94.4%
[2]
  viability, T/C: 90.5%
[3]
  viability, T/C: 96%
[4]
  viability, T/C: 99.2%
[5]
  viability, T/C: 102%
[6]
  viability, T/C: 99.3%
[7]
  viability, T/C: 110%
[8]
  viability, T/C: 96%
[9]
  viability, T/C: 96.4%
[10]
  viability, T/C: 103%
[11]
  viability, T/C: 114%
[12]
  viability, T/C: 96.4%
[13]
  viability, T/C: 107%
[14]
  viability, T/C: 102%
[15]
  viability, T/C: 102%
[16]
  viability, T/C: 107%
[17]
  viability, T/C: 99.5%
[18]
  viability, T/C: 101%
[19]
  viability, T/C: 99.7%
[20]
  viability, T/C: 96%
[21]
  viability, T/C: 98.5%
[22]
  viability, T/C: 104%
[23]
  viability, T/C: 102%
[24]
  viability, T/C: 97.5%
[25]
  viability, T/C: 110%
[26]
  viability, T/C: 98.7%
[27]
  viability, T/C: 102%
[28]
  viability, T/C: 101%
[29]
  viability, T/C: 99.9%
[30]
  viability, T/C: 95.7%
[31]
  viability, T/C: 102%
[32]
  viability, T/C: 95%
[33]
  viability, T/C: 106%
[34]
  viability, T/C: 96.9%
[35]
  viability, T/C: 98.6%
[36]
  viability, T/C: 102%

## Nc1ccn(C2OC(CO)C(O)C2(F)F)c(=O)n1 (stereo unspecified) + COC1C(OC(N)=O)C(O)C(Oc2ccc3c(O)c(NC(=O)c4ccc(O)c(CC=C(C)C)c4)c(=O)oc3c2C)OC1(C)C
Second compound 0.0316 µM
  IC50: > 10 µM
Second compound 0.1 µM
  IC50: > 10 µM
Second compound 0.316 µM
  IC50: > 10 µM
Second compound 1 µM
  IC50: > 10 µM
Second compound 3.16 µM
  IC50: > 10 µM
Second compound 10 µM
  IC50: > 10 µM
[1]
  viability, T/C: 98.8%
[2]
  viability, T/C: 72.9%
[3]
  viability, T/C: 75.7%
[4]
  viability, T/C: 63.5%
[5]
  viability, T/C: 66%
[6]
  viability, T/C: 53.9%
[7]
  viability, T/C: 95.6%
[8]
  viability, T/C: 80.1%
[9]
  viability, T/C: 76.5%
[10]
  viability, T/C: 66%
[11]
  viability, T/C: 58%
[12]
  viability, T/C: 57.3%
[13]
  viability, T/C: 90.2%
[14]
  viability, T/C: 79.7%
[15]
  viability, T/C: 72.6%
[16]
  viability, T/C: 62.4%
[17]
  viability, T/C: 60.3%
[18]
  viability, T/C: 59.5%
[19]
  viability, T/C: 86.1%
[20]
  viability, T/C: 84.9%
[21]
  viability, T/C: 73.9%
[22]
  viability, T/C: 72%
[23]
  viability, T/C: 56.2%
[24]
  viability, T/C: 58.4%
[25]
  viability, T/C: 91.9%
[26]
  viability, T/C: 87.3%
[27]
  viability, T/C: 74.8%
[28]
  viability, T/C: 62.9%
[29]
  viability, T/C: 62.6%
[30]
  viability, T/C: 53.5%
[31]
  viability, T/C: 95.8%
[32]
  viability, T/C: 89.4%
[33]
  viability, T/C: 75.7%
[34]
  viability, T/C: 65.1%
[35]
  viability, T/C: 66.9%
[36]
  viability, T/C: 58.7%

## O=c1[nH]cc(F)c(=O)[nH]1 + COC1C(OC(N)=O)C(O)C(Oc2ccc3c(O)c(NC(=O)c4ccc(O)c(CC=C(C)C)c4)c(=O)oc3c2C)OC1(C)C
Second compound 0.0316 µM
  IC50: > 10 µM
Second compound 0.1 µM
  IC50: > 10 µM
Second compound 0.316 µM
  IC50: > 10 µM
Second compound 1 µM
  IC50: > 10 µM
Second compound 3.16 µM
  IC50: > 10 µM
Second compound 10 µM
  IC50: > 10 µM
[1]
  viability, T/C: 99.2%
[2]
  viability, T/C: 75.7%
[3]
  viability, T/C: 78.8%
[4]
  viability, T/C: 72.7%
[5]
  viability, T/C: 73.8%
[6]
  viability, T/C: 64.2%
[7]
  viability, T/C: 91.8%
[8]
  viability, T/C: 80.3%
[9]
  viability, T/C: 77.4%
[10]
  viability, T/C: 71.1%
[11]
  viability, T/C: 71%
[12]
  viability, T/C: 75.8%
[13]
  viability, T/C: 91%
[14]
  viability, T/C: 82%
[15]
  viability, T/C: 84.8%
[16]
  viability, T/C: 73.1%
[17]
  viability, T/C: 71.1%
[18]
  viability, T/C: 68.7%
[19]
  viability, T/C: 89.6%
[20]
  viability, T/C: 78.7%
[21]
  viability, T/C: 74.7%
[22]
  viability, T/C: 77.1%
[23]
  viability, T/C: 70.7%
[24]
  viability, T/C: 70.7%
[25]
  viability, T/C: 92.5%
[26]
  viability, T/C: 86.5%
[27]
  viability, T/C: 78.1%
[28]
  viability, T/C: 72.9%
[29]
  viability, T/C: 74.8%
[30]
  viability, T/C: 73.3%
[31]
  viability, T/C: 92.8%
[32]
  viability, T/C: 76.3%
[33]
  viability, T/C: 82.7%
[34]
  viability, T/C: 73.1%
[35]
  viability, T/C: 77.6%
[36]
  viability, T/C: 83.1%
